This is an account of results in the supplement of paper PMC11061612.

Test [1] deals with A253 (Head and Neck Carcinoma). Nature of the test: Bliss excess, mean over the matrix (fraction); higher = more synergy. In short, it runs like this:
(§1)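 After 24 hours at 37°C and 5% CO2 in 1536-well plates, cells in DMEM/F12 or RPMI plus 10% FBS received two-drug dose matrices for 72 hours. Viability came from CellTiter-Glo 2.0 luminescence and was scaled as inhibition, anchored at 0 by vehicle wells and at 1 by blank wells. Combination Emax is taken as the second-highest inhibition in the matrix, and Bliss excess as the observed combination effect less EA + EB − EA·EB, with EA and EB the single-agent effects.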

The subject of a further test is AU565 (Breast Carcinoma). The description is as above. In a few lines: as §1
The subject of test [2] is CA46 (Burkitt's Lymphoma). The test is described as above. In short, it runs like this:
as §1

Test [3] deals with CAL-27 (Oral Cavity Carcinoma). The test is described as above. In a few lines: as §1
Test [4] deals with EPLC-272H (Other Solid Carcinomas). The test is described as above. In short, it runs like this: as §1
In test [5] the test system is GA-10 (Burkitt's Lymphoma). Described as above. In a few lines:
as §1

The test system of test [6] is GCT (Other Solid Carcinomas). The description is as above. In a few lines:
as §1

Test [7] concerns HT55 (Colorectal Carcinoma). The test is described as above. In short, it runs like this:
as §1

Test [8] has as its system JVM-2 (B-Cell Non-Hodgkin's Lymphoma). The test is described as above. In a few lines:
as §1

Test [9] concerns KYSE-140 (Esophageal Squamous Cell Carcinoma). The test is described as above. In short, it runs like this:
as §1

The subject of test [10] is MKN1 (Gastric Carcinoma). Described as above. In a few lines: as §1
Test [11] concerns NCI-H841 (Small Cell Lung Carcinoma). The description is as above. In a few lines: as §1
Test [12] relates to OACp4C (Esophageal Adenocarcinoma). The test is described as above. In short, it runs like this: as §1
A further test deals with KP-N-YN (Neuroblastoma). The test can be described thus: combination Emax (second highest fraction inhibited in the dose matrix, 72 h); higher = more inhibition; extreme values may be limits of the assay. In short, it runs like this:
as §1

For test [13], the system named is MKN1 (Gastric Carcinoma). Described as above. In a few lines:
as §1

Test [14] relates to NCI-H841 (Small Cell Lung Carcinoma). Described as above. In short, it runs like this:
as §1

SMILES strings stand for the structures.
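For Bliss excess, mean over the matrix in this document: after 72 h of two-drug dosing.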

Regarding `C[C@@H](c1ccc2nccn2c1)n1nnc2ncc(-c3cnn(C)c3)nc21` [Savolitinib] + CC1(C)CCC(CN2CCN(c3ccc(C(=O)NS(=O)(=O)c4ccc(NCC5CCOCC5)c([N+](=O)[O-])c4)c(Oc4cnc5[nH]ccc5c4)c3)CC2)=C(c2ccc(Cl)cc2)C1 [Venetoclax] (first compound max 1 µM, 7x7, partner max 1 µM), the Bliss excess in test [1] is -0.0524; in the test on AU565 (Breast Carcinoma) it was -0.0255; in test [2], -0.0366; in test [3], -0.0571; in test [4], -0.0604; in test [5] it was -0.0485. The Bliss excess was -0.0727 in [6]; -0.0562 in test [7]; -0.0472 in test [8]; -0.0257 in test [9]; -0.0402 with MKN1 (Gastric Carcinoma) [10]; -0.0333 in [11]. In [12], the Bliss excess was -0.0367. In addition, the “combination Emax” value with KP-N-YN (Neuroblastoma) is 0.569; in the test with MKN1 (Gastric Carcinoma) [13], 0.0845; in test [14] it was 0.201.
As to `N#Cc1cnc(Nc2cc(NC[C@H]3CNCCO3)c(C(F)(F)F)cn2)cn1` [SRA737] + Nc1ccn([C@@H]2O[C@H](CO)[C@@H](O)C2(F)F)c(=O)n1 [Gemcitabine] (first compound max 10 µM, 7x7, partner max 0.3 µM), the results for the Bliss excess (in the test on MKN1 (Gastric Carcinoma) [10]; in test [11]) were 0.0588 and 0.0776, respectively. The “combination Emax” value in the test on MKN1 (Gastric Carcinoma) [13] amounted to 0.867; in test [14] it was 0.818.
`Cc1nc(Nc2ncc(C(=O)Nc3c(C)cccc3Cl)s2)cc(N2CCN(CCO)CC2)n1` [Dasatinib] + CC(=O)Nc1cccc(-n2c(=O)n(C3CC3)c(=O)c3c(Nc4ccc(I)cc4F)n(C)c(=O)c(C)c32)c1 [Trametinib] (first compound max 2 µM, 7x7, partner max 1 µM): the Bliss excess in test [1] was -0.189; with AU565 (Breast Carcinoma), -0.0345; in test [2], -0.0608; in test [3], -0.053; in test [4], -0.0746; in test [5], 0.0228. In addition, the Bliss excess in [6] is -0.119; in test [7], -0.032; in test [8] it was -0.0158; in test [9] it was -0.132; with MKN1 (Gastric Carcinoma) [10] it was -0.0121; in test [11], -0.0356. Besides, the Bliss excess in [12] is 0.01. Also, the entries for the “combination Emax” value (with KP-N-YN (Neuroblastoma); in the test on MKN1 (Gastric Carcinoma) [13]; in [14]) were 0.361, 0.656 and 0.199, respectively.
With `CN(CCO)CC[C@H](CSc1ccccc1)Nc1ccc(S(=O)(=O)NC(=O)c2ccc(N3CCC([C@@H](O)c4ccccc4-c4ccc(Cl)cc4)CC3)cc2)cc1S(=O)(=O)C(F)(F)F` [AZD4320] + Nc1ccn([C@@H]2O[C@H](CO)[C@@H](O)C2(F)F)c(=O)n1 [Gemcitabine] (first compound max 1 µM, 7x7, partner max 0.3 µM), the Bliss excess with MKN1 (Gastric Carcinoma) [10] is 0.0005; in test [11], -0.0317. The “combination Emax” value with MKN1 (Gastric Carcinoma) [13] turned out to be 0.759; in test [14], 0.322.
For the molecule `C[C@@H](c1ccc2nccn2c1)n1nnc2ncc(-c3cnn(C)c3)nc21` [Savolitinib] + Cc1c2c(nn1C)CSCc1cc(n(C)n1)CSc1cc(c3ccccc3c1)OCCCc1c(C(=O)O)n(C)c3c-2c(Cl)ccc13 [AZD5991] (first compound max 1 µM, 7x7, partner max 1 µM), the Bliss excess is -0.0738 in [1]; 0.0125 in the test with AU565 (Breast Carcinoma); -0.03 in [2]; -0.0839 in test [3]; -0.0128 in test [4]; -0.0354 in test [5]. The Bliss excess in test [6] was -0.054; in test [7], -0.0697; in test [8] it was -0.021; in test [9], -0.0301; in the test on MKN1 (Gastric Carcinoma) [10] it was -0.0366; in test [11], -0.0178. The Bliss excess in [12] is -0.0328. Further, the entries for the “combination Emax” value (with KP-N-YN (Neuroblastoma); in the test with MKN1 (Gastric Carcinoma) [13]; in test [14]) were 0.324, 0.111 and 0.266, respectively.
As to `N#Cc1cnc(Nc2cc(NC[C@H]3CNCCO3)c(C(F)(F)F)cn2)cn1` [SRA737] + CCc1c2c(nc3ccc(O)cc13)-c1cc3c(c(=O)n1C2)COC(=O)[C@]3(O)CC [SN-38] (first compound max 10 µM, 7x7, partner max 0.3 µM), the Bliss excess worked out at 0.0303 with MKN1 (Gastric Carcinoma) [10] and 0.044 in [11]. Moreover, the “combination Emax” value in the test with MKN1 (Gastric Carcinoma) [13] is 0.866; in [14], 0.62.
As to `Cc1cc2ncnn2cc1Nc1ncc2c(n1)n(C1CCOCC1)c(=O)n2C` [AZD7648] + COc1cc([C@@H]2c3cc4c(cc3[C@@H](O[C@@H]3O[C@@H]5CO[C@@H](C)O[C@H]5[C@H](O)[C@H]3O)[C@H]3COC(=O)[C@H]23)OCO4)cc(OC)c1O [Etoposide] (first compound max 10 µM, 7x7, partner max 10 µM), the Bliss excess in the test on MKN1 (Gastric Carcinoma) [10] came to 0.0865; in test [11], 0.0261. In addition, the entries for the “combination Emax” value (in the test with KP-N-YN (Neuroblastoma); with MKN1 (Gastric Carcinoma) [13]; in [14]) were 0.677, 0.922 and 0.441, respectively.
Consider `N#Cc1cnc(Nc2cc(NC[C@H]3CNCCO3)c(C(F)(F)F)cn2)cn1` [SRA737] + C=CCn1c(=O)c2cnc(Nc3ccc(N4CCN(C)CC4)cc3)nc2n1-c1cccc(C(C)(C)O)n1 [AZD1775] (first compound max 10 µM, partner max 1 µM), for which the Bliss excess in the test with MKN1 (Gastric Carcinoma) [10] came out at 0.0971; in [11] it was 0.0292. Further, the results for the “combination Emax” value (in the test with MKN1 (Gastric Carcinoma) [13]; in test [14]) were 0.916 and 0.514, respectively.
On to `N#Cc1cnc(Nc2cc(NC[C@H]3CNCCO3)c(C(F)(F)F)cn2)cn1` [SRA737] + O=c1[nH]cc(F)c(=O)[nH]1 [5-Fluorouracil] (first compound max 10 µM, 7x7, partner max 20 µM), for which the Bliss excess is 0.0221 in the test on MKN1 (Gastric Carcinoma) [10] and -0.0189 in test [11]. Besides, the entries for the “combination Emax” value (in the test with MKN1 (Gastric Carcinoma) [13]; in test [14]) were 0.69 and 0.183, respectively.
Regarding `COc1cc2ncnc(Nc3ccc(F)c(Cl)c3)c2cc1OCCCN1CCOCC1` [Gefitinib] + CC(C)n1c(=O)n(C)c2cnc3cc(F)c(-c4ccc(OCCCN5CCCCC5)nc4)cc3c21 [AZD1390] (first compound max 10 µM, 7x7, partner max 0.3 µM), the Bliss excess was -0.0551 in test [1]; -0.0219 in the test with AU565 (Breast Carcinoma); -0.0529 in test [2]; -0.0668 in [3]; -0.0207 in test [4]; -0.032 in test [5]. In addition, the Bliss excess is -0.065 in test [6]; -0.0393 in [7]; -0.0645 in test [8]; -0.0919 in [9]; -0.0669 in the test on MKN1 (Gastric Carcinoma) [10]; -0.0837 in test [11]. Also, in [12], the Bliss excess was -0.067. Also, the “combination Emax” value was determined as 0.318 in the test on KP-N-YN (Neuroblastoma), 0.339 in the test with MKN1 (Gastric Carcinoma) [13] and 0.176 in test [14].
